Here are results for 88 compounds from PubChem BioAssay AID720513 (Broad Institute, 2013).

Results filed as inconclusive are left out.

For this experiment, the system named is U2OS PGC1a acetylation AlphaLISA, overnight. Put plainly: activators raising PGC1a acetylation in cells, dose response, cell-based, cherry-picked samples, set 6 (AID 720513).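 Note: cells made to overexpress flag tagged PGC1a plus GCN5 acetyltransferase by viral infection.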
For the compound `Cc1ccccc1-c1ccc(C2[C@@H]3CN(S(=O)(=O)c4ccccc4C)C[C@H]2N3)cc1` (stereo partly drawn), the AC40 is 12.9 µM. For `O=C(c1ccco1)N1CCN(c2nnc(-c3ccccc3)c3ccccc23)CC1` the value was 4.28 µM; for `N#Cc1ccccc1COC(=O)c1ccc2c(c1)OCCO2`, 5.43 µM; for `C[C@@H]1CN([C@H](C)CO)C(=O)c2c(c3ccccc3n2C)-c2ccccc2CO[C@@H]1CN(C)C(=O)Nc1ccc2c(c1)OCO2`, 10.7 µM. Take `Cc1ccc(S(=O)(=O)Nc2ccc3c(c2)C(=O)N([C@@H](C)CO)C[C@@H](C)[C@H](CN(C)C(=O)Nc2cccc4ccccc24)OCCCC[C@H](C)O3)cc1`: the AC40 was 3.83 µM. Under `Fc1ccc(-c2nn3c(C4COc5ccccc5O4)nnc3s2)cc1` (stereo not drawn) stands 1.01 µM. Under `CC(C)(C)c1ccc(NC(=O)N2CCCN(c3ccc([N+](=O)[O-])cn3)CC2)cc1` stands 0.25 µM; under `COc1ccc(OC)c(NC(=O)CSc2nnc(-c3cccnc3)s2)c1`, 0.792 µM; under `CCN(CC)c1ccc(NC(=O)c2cc(OC)cc(OC)c2)c(C)c1`, 12.3 µM. Under `COc1ccc(CC(=O)OCC(=O)NCc2ccco2)cc1` stands 9.28 µM; under `C[C@@H]1CN([C@@H](C)CO)C(=O)c2c(c3ccccc3n2C)-c2ccccc2CO[C@@H]1CN(C)C(=O)c1ccccc1`, 5.25 µM. Turning to `Cc1cccc(Oc2nccc(C(F)(F)F)c2C(=O)Nc2ccc(F)cc2F)c1`, the AC40 was 11.9 µM. For `Cc1cccc(C)c1OC1(c2ccccc2)OC(=O)c2ccccc21` (stereo not drawn) the value was 1.1 µM; for `C[C@H]1CN([C@@H](C)CO)S(=O)(=O)c2ccc(C#CCN(C)C)cc2O[C@@H]1CN(C)Cc1ccc2c(c1)OCO2`, 4.76 µM.

For the compound `CC(C)NC(=O)N(C)C[C@H]1OCCCC[C@@H](C)Oc2ccc(NC(=O)Cc3ccccc3)cc2C(=O)N([C@@H](C)CO)C[C@H]1C`, the AC40 was 16.4 µM. Under `N#Cc1ccccc1S(=O)(=O)N1CCN(Cc2cc3c(cc2Br)OCCO3)CC1` stands 0.934 µM. Under `COc1cc(-c2cnc3c(NC(C)=O)cc(-c4ccccc4CN(C)C)cn23)cc(OC)c1OC` stands 8.19 µM. For `c1ccc(N2CCN(c3ccccc3)C2c2ccncc2)cc1` the value was 0.244 µM; for `CCOC(=O)c1ccc(NC(=O)Nc2ccc(F)cc2)cc1`, 16.2 µM; for `Cc1cc(C)c2nc(N(CCCN(C)C)C(=O)c3ccc(S(=O)(=O)N4CCCCCC4)cc3)sc2c1`, 2.9 µM.

As for `CCC(=O)N(CC)c1nc(-c2ccc(OC)cc2)cs1`, the AC40 is 3.53 µM.

Take `CC(NS(=O)(=O)c1ccccc1Cl)C1CC2CCC1C2` (stereo not drawn): the AC40 is 0.415 µM. Under `COc1ccc(S(=O)(=O)N(C)C[C@@H]2Oc3cc(C#CC4CC4)ccc3S(=O)(=O)N([C@H](C)CO)C[C@@H]2C)cc1` stands 18 µM. As to `COc1ccc(NC(=O)Cn2ncc(Cl)c(Cl)c2=O)cc1S(=O)(=O)N1CCOCC1`, the AC40 is 1.6 µM. For `COc1ccc(C(=O)NN(C)c2nc(-c3ccccc3)cc(C)c2S(C)(=O)=O)cc1` the value was 19 µM; for `CCOc1ccccc1N(C)C(=O)C1CCN(S(=O)(=O)c2cccc3nonc23)CC1`, 3.29 µM. For `O=C(C1CCC1)N1CCN(S(=O)(=O)c2ccccc2)CC1` the value was 2.24 µM. Under `Cc1cc2oc(=O)cc(CN3CCC(C)CC3)c2cc1C` stands 5.71 µM; under `Cc1ccc(-c2nnc(N3CCN(C(=O)COc4ccccc4)CC3)c3ccccc23)cc1`, 0.734 µM; under `Cc1ccccc1-c1ccc2c(c1)O[C@H](CN(C)Cc1ccncc1)[C@@H](C)CN([C@@H](C)CO)S2(=O)=O`, 14.9 µM. Turning to `COc1ccc(CCNC(=O)c2cc(-c3ccco3)on2)cc1OC`, the AC40 is 5.2 µM. For `CCCCN(CCCC)S(=O)(=O)c1ccc2oc(C(=O)N3CCOCC3)c(C)c2c1`, the AC40 was 1.79 µM. Under `COc1ccc(S(=O)(=O)N2CCOCC2)cc1NC(=O)CCNC(=O)c1ccc([N+](=O)[O-])cc1` stands below 0.3 µM. For the compound `CCOC(=O)c1c(-c2ccc(C)cc2C)csc1NC(=O)CSc1nnnn1C`, the AC40 was 8.11 µM. Under `COc1ccc(NC(=O)CSC2CC(=O)N(c3ccc4c(c3)OCCO4)C2=O)cc1` (stereo not drawn) stands 16.5 µM; under `Cc1cc(N2CCC(C(N)=O)CC2)nc(-c2ccccc2)n1`, 3.95 µM; under `COc1ccc(NC(=O)C2(C)Cc3c(-c4cccc(NC(C)=O)c4)ccnc3O2)cc1` (stereo not drawn), 17.1 µM.

Take `CC(=O)Nc1cc(C(=O)OCc2cccc([N+](=O)[O-])c2)ccc1C`: the AC40 was 10.4 µM. Take `Cc1ccc(CC(=O)N2CCN(c3ccc([N+](=O)[O-])cc3)CC2)cc1`: the AC40 was 0.312 µM. As for `Fc1ccc(CN(Cc2ccccc2)C(c2cccs2)c2nnnn2C2CCCCC2)cc1` (stereo not drawn), the AC40 is 12.7 µM.

For `COc1ccc(S(=O)(=O)N(C)CC(=O)Nc2cccc(C(C)=O)c2)cc1Cl`, the AC40 was 9.1 µM. On to `COc1cc(C)c(CN2CCN(S(=O)(=O)c3ccc(Cl)s3)CC2)cc1OC`, for which the AC40 was 0.525 µM.

As for `COc1cc(-c2nnn(CC#N)n2)ccc1OCc1ccccc1`, the AC40 was 0.296 µM. Under `Cc1ccccc1Cn1cc(NC(=O)c2cc(-c3cccs3)on2)cn1` stands 1.32 µM. Turning to `Cc1cccc(C)c1-n1nnnc1C(c1cccs1)N1CCC(n2c(=O)[nH]c3ccccc32)CC1` (stereo not drawn), the AC40 was 5.87 µM.

Turning to `CC(=O)Nc1ccc(NC(=O)CN(c2cccc([N+](=O)[O-])c2)S(C)(=O)=O)cc1`, the AC40 was 0.482 µM. Under `C[C@@H]1CN([C@@H](C)CO)C(=O)c2c(c3ccccc3n2C)-c2ccccc2CO[C@@H]1CN(C)C(=O)Oc1ccccc1` stands 7.26 µM. `CN1C(=O)/C(=C\c2ccc(N3CCCCC3)o2)C(=O)NC1=S`: the AC40 was 4.61 µM. Turning to `O=[N+]([O-])c1ccc(N2CCN(CC3CCCCC3)CC2)cc1`, the AC40 was 16 µM. `C[C@@H]1CN([C@H](C)CO)C(=O)c2cc(N(C)C)ccc2O[C@@H](C)CCCCO[C@H]1CN(C)C(=O)Cc1ccccc1`: the AC40 was 5.69 µM. Under `CN(C(=O)C1CC1)C1CCS(=O)(=O)C1` (stereo not drawn) stands 15.2 µM.

Consider `O=C(Cn1c(CN2CCCCC2)nc2ccccc2c1=O)Nc1ccccc1`, for which the AC40 is 5.19 µM. For `CN1CCN(C(=O)CSc2nc(-c3cccs3)cc(-c3cccs3)c2C#N)CC1` the value was 2.77 µM. On to `COC(=O)C[C@H]1c2cc(C(F)(F)F)ccc2S(=O)(=O)N1Cc1ccc(OC)cc1`, for which the AC40 is 5.25 µM. For the compound `Cn1ncc(Cl)c1C(=O)Nc1sc2c(c1C(N)=O)CCC2`, the AC40 is 5.65 µM. For `O=C(Cc1ccccc1)Nc1nc(-c2ccc(F)c(F)c2)cs1` the value was 1.44 µM. Consider `CCOc1ccc(N(C)S(=O)(=O)c2cc(-c3cc(C)no3)ccc2OC)cc1`, for which the AC40 is 5.29 µM. For `Cc1ccc(/C(N)=N/OC(=O)c2ccco2)cc1` the value was 8.81 µM; for `Cc1ccc(OC(=O)N(C)C[C@H]2OCc3ccccc3-c3c(n(C)c4ccccc34)C(=O)N([C@@H](C)CO)C[C@H]2C)cc1`, 4.98 µM. Under `CCCCN(CC)CCCNC(=O)c1cc2c(=O)n(CC)c3ccccc3c2s1` stands 1.26 µM; under `CCCc1cc2c(cc1N(C)S(=O)(=O)c1ccccc1)OCO2`, 2.96 µM; under `O=C(COc1ccc(Cl)cc1)NCCCNC(=O)c1cccnc1`, 1.22 µM. Under `C[C@H]1CN([C@@H](C)CO)C(=O)c2cccc(NS(=O)(=O)c3ccc(F)cc3)c2O[C@H]1CN(C)Cc1ccc(C(F)(F)F)cc1` stands 1.3 µM; under `CC1(C)OC(C)(C)/C(=C\c2ccc(OCC(N)=O)cc2)C1=O`, 6.64 µM; under `C[C@@H](c1ccccc1)N1Cc2ccccc2Oc2cc(Br)ccc2S1(=O)=O`, 14.3 µM. As for `O=C(Nc1cccc(C(F)(F)F)c1)c1sc(Cl)nc1C(F)(F)F`, the AC40 is 3.01 µM. For `O=C(Nc1cccnc1)c1ccc(Br)s1` the value was 0.601 µM. For `O=C(/C=C/Sc1ncn[nH]1)c1ccc(Cl)cc1` the value was 0.395 µM. Under `COC(=O)CSc1nc(-c2ccccc2)cc(-c2ccco2)c1C#N` stands 6.11 µM; under `Cc1cc2c(cc1S(=O)(=O)N1CCc3ccccc31)NC(=O)CO2`, 2.18 µM; under `CCOc1ccc(NC2c3ccccc3C(=O)N2Cc2ccc3c(c2)OCO3)cc1` (stereo not drawn), 16.3 µM. Consider `COc1cc(CN2CC3(CCN(S(=O)(=O)c4cccs4)CC3)c3c(n(C)c4cc(OC)ccc34)[C@H]2CO)cc(OC)c1`, for which the AC40 was 14.3 µM. Under `COc1ccc(-n2c(=O)c3c4c(sc3n3c(=S)[nH]nc23)CCC4)cc1` stands 0.563 µM; under `O=[N+]([O-])c1cc(-c2nnc(Nc3ccc(O)cc3)c3ccccc23)ccc1N1CCOCC1`, 2.74 µM.

Regarding `O=C(NCc1ccc(Cl)cc1)C1CCC(CNc2c(N3CCCC3)c(=O)c2=O)CC1` (stereo not drawn), the AC40 was 6.36 µM. With `COc1ccccc1NC(=O)c1ccc(NC(=O)CNC(=O)c2ccc(OC)c(OC)c2)cc1`, the AC40 is 15.7 µM. As for `O=C(Nc1ccc(Nc2ccncc2)cc1)c1ccc([N+](=O)[O-])cc1`, the AC40 was 3.4 µM.

`Cc1cc2cc3c(cc2nc1SCC(=O)OC(C)C)OCCO3`: the AC40 was 11.5 µM. Under `CC(=O)C1=CCC(c2cccc3ccccc23)N(S(=O)(=O)c2ccc(C)cc2)C1` (stereo not drawn) stands 18.7 µM; under `CSCCC(c1nnnn1-c1c(C)cccc1C)N1CCC2(CC1)C(=O)NCN2c1ccccc1` (stereo not drawn), 4.64 µM. Under `CCOC(=O)C1=C[C@@H](C(C)C)N(S(=O)(=O)c2ccc(C)cc2)[C@H]1c1ccc(C(F)(F)F)cc1` stands 2.64 µM. Take `Oc1ccc(C[C@@H]2CNCCN2CCC23CC4CC(CC(C4)C2)C3)cc1`: the AC40 was 6.79 µM. Under `CC1CC1C(=O)OCC(=O)NCc1ccc(Cl)cc1` (stereo not drawn) stands 18.2 µM. `CC(C)(C)c1ccc(C(=O)c2c[nH]c(C(=O)NCc3cccnc3)c2)cc1`: the AC40 was 1.23 µM.

For `O=C(C[C@H]1CC[C@H]2[C@@H](COC[C@@H](O)CN2C(=O)c2cc(Cl)cc(Cl)c2)O1)N1CCc2ccccc2C1`, the AC40 is 9.14 µM. For `COc1cccc(-c2ccc(C3[C@@H]4CN(S(=O)(=O)c5cccc(OC)c5)C[C@H]3N4)cc2)c1` (stereo partly drawn) the value was 10.5 µM; for `O=C(NCCCN1CCOCC1)c1ccccc1N1C(=O)[C@@H]2Cc3c([nH]c4ccccc34)C(c3ccccc3)N2C1=O` (stereo partly drawn), 6.79 µM. Under `Cc1cc(C(F)(F)F)n(-c2nc(C(=O)NNS(=O)(=O)c3ccccc3[N+](=O)[O-])cs2)n1` stands 3.43 µM.
